Article PMC10878532, “Sperm Toolbox—A selection of small molecules to study human spermatozoa” (PLOS ONE, 2024)
Structures can show the parent of a compound that is named as a salt.

Legend:
spermatozoa = system: spermatozoa; parameters: method as in per compound as listed in column References of Table 1; details: summaries of reported effects; ref per compound as listed in Table 1; cited from earlier work
human spermatozoa [1] = assay: Acrosome assay, protocol 1 (3h incubation with compound, no agonist; flow cytometry, PNA); type: cell-based; details: assay 'Acrosome', incubation_time 3h
Procedure: The acrosome assays utilize a high-throughput flow cytometer (S1 Fig) to score for compounds inducing the acrosome reaction, using peanut agglutinin conjugated to a fluorescent dye to label the outer acrosomal membrane. We have developed two different screening protocols, named ‘acrosome 1’ and ‘acrosome 2’ (S1 Fig). […] This addition allowed measurement of inhibition of acrosome reaction (Fig 2B).
(§1) In both experimental protocols, 20 μL of pooled cells (at 1 M/mL concentration) were capacitated for 3 h in presence of compounds at 37°C and 5% CO2. In protocol a, cells were then stained with PNA-Alexa647 (ThermoFisher, 1 mg/mL, final dilution 1:1000) and Hoechst dye for 30 min at 37°C and 5% CO2, followed by 10 min fixation at RT by adding 20 μL of 4% paraformaldehyde (Sigma) in PBS. In mode b, a cocktail of progesterone, prostaglandin A and NH4Cl was added to all compound wells and incubated for an additional 1 h at 37°C and 5% CO2 to induce acrosome reaction. This was followed by fixation and staining protocol as for mode a. In both protocols fixatives and stains were removed and cells were resuspended in PBS, using a 405 platewasher. Plates were then measured on a Novocyte Advanteon high-throughput flow cytometer. Gating of data has been performed using the flow cytometer software to export counts of gated populations. The Acrosome 1 protocol using 3h incubation with compounds was run in 7 separate donor pools. The Acrosome 2 protocol using 3h incubation with compound followed by 1h stimulation of acrosome reaction was run in 5 separate donor pools.
(§2) For cell painting imaging data, plates of images were imported into OMERO [70]. Cell segmentation and feature extraction were performed using CellProfiler 3 [71] and using instructions from to normalize data. Timelapse data of motility assays was processed as previously described. Acrosome flow cytometry data was processed using NovoCyte Express (PerkinElmer), to gate out background debris, select for single cells and calculate percentage values of acrosome positive events. Sperm viability flow cytometry data was processed using iQue Forecyt (Satorius) to gate out background debris, select for single cells and calculate percentage values of propidium iodide positive events. For all sperm functional assays, data was normalized to DMSO control wells. Each plate had 16 DMSO wells. A median value of all 16 wells was used to calculated percentage change (pct_ch = ((value / DMSO_median) -1) * 100). For sperm viability we calculated fold-change (fc = 1 − (value / DMSO_median)). For each compound we calculated a p-value using a Welch’s t-test implemented in scipy (scipy.stats.ttest_ind) comparing a compounds effect to DMSO controls.

human spermatozoa [2] = assay: Motility assay (non-capacitating conditions); type: cell-based; details: for sperm motility and/or acrosome reacted cells (unsupervised clustering): cluster in Fig 3A heatmap, 30 μM
Procedure: (§3) To compare the effects of STB compounds on specific sperm functions (e.g. motility, acrosome reaction, viability), we screened them in multiple phenotypic functional assays described below. Each sperm function assay has been repeated in multiple donor pools (see Materials and methods), where each pool consists of cells donated from at least 3 different donors to address donor to donor variability. Each compound has been tested at two concentrations, 10 and 30 μM, and normalized to vehicle controls (DMSO, see Materials and methods). We have modified our assays from the previously published workflow by increasing incubation time and introducing conditions that support capacitation, which is a sperm maturation process required for fertilization. These changes expand the range of targets that we can explore in our assays. Our live-sperm-based high-throughput motility assays use an automated microscope to record short timelapse movies. These assays can be run in different protocols (S1 Fig). […] In this protocol, cells are incubated with compounds for 10 min prior to the first motility read-out. A second and third motility read-out were performed after 3h and 6h incubation. The second protocol, denoted ‘capacitation assay’, utilises conditions that support capacitation (S1 Fig). In this protocol, cells are kept in conditions supporting capacitation for 30 minutes prior to 30 minutes incubation with compound, followed by motility read-out. Both protocols allow sperm motility to be measured (0.5 sec time-lapse movies allow tracking of cells and calculation of sperm kinematics). In addition, the capacitation assay also scores hyperactivation (i.e. distinct movement patterns concomitant with capacitation which are crucial for fertilization) (Fig 2A).
Cells were rested for 1 h post density gradient centrifugation. 10 μL assay buffer was dispensed into assay ready plates, plates were put onto a shaker instrument for 30 seconds using 1,000 rpm, followed by a short pulse centrifugation. Plates were incubated for 15–30 mins at 37°C prior to addition of 10 μL of pooled cells (at 1 M/mL concentration). Plates were then incubated in a Yokogawa CV7000 microscope set at 37°C for 10 min prior to imaging. Imaging a 384-well plate requires ≤ 20 min using the following settings: 2 positions per well, 0.5 sec timelapse movies (3x binning; 11 ms exposure time, 22 ms interval time, […]). A second and a third timepoint was recorded after 3 h, and 6 h incubation at 37°C. Data has been processed as described in [8]. Assay results are from 5 separate donor pools.
as §2

human spermatozoa [3] = assay: Authors' own unpublished screening campaigns ('This study'); type: cell-based
From the text: Because there is so little known about the molecular mechanisms that control sperm motility, we are unable to develop hypotheses of potential targets when new hits are identified in the sperm motility assay. However, it is now well-established that features derived from images in phenotypic assays, when compared to phenotypes measured on reference compounds, can accurately stratify genetic or chemical perturbations in phenotypic screens. […] Compound annotations are included in the dataset derived from the STB and indicate that Enzymes/Kinases, Receptors, Channels and Transporters are the most represented target of the STB compound classes (Fig 1D).
List of compounds included in Sperm Toolbox. Published Phenotypes are summaries of reported effects on sperm function related to other processes (e.g. spermatogenesis, liquefaction, or ejaculation).

LRRK2 kinase = details: annotated as; cited from earlier work
human spermatozoa [4] = assay: Acrosome assay, protocol 2 (3h with compound, then 1h agonist cocktail); type: cell-based; details: cluster in Fig 3A; 3h with compound then agonist mix
Procedure: The acrosome assays utilize a high-throughput flow cytometer (S1 Fig) to score for compounds inducing the acrosome reaction, using peanut agglutinin conjugated to a fluorescent dye to label the outer acrosomal membrane. We have developed two different screening protocols, named ‘acrosome 1’ and ‘acrosome 2’ (S1 Fig). Both protocols are capable of measuring induction of the acrosome reaction upon compound incubation. However, in the acrosome 2 assay, a mixture of physiological agonists of the acrosome reaction is used after cells have been incubated with compounds for 3h under conditions that support capacitation. This addition allowed measurement of inhibition of acrosome reaction (Fig 2B).
as §1
as §2, with “Sperm viability flow cytometry data was processed using iQue Forecyt (Satorius) to gate out background debris, select for single cells and calculate percentage values of propidium iodide positive events. For all sperm functional assays, data was normalized to DMSO control wells. Each plate had 16 DMSO wells.” left out

human spermatozoa [5] = assay: Sperm viability assay (propidium iodide, flow cytometry); type: cell-based; details: 3h with compound
Procedure: In this assay, cells are incubated for 3h with compound in non-capacitating media, prior to viability assessment.
Cells were incubated with compounds for a total of 3h at 37°C. 20 min prior, propidium iodide was added (1.5 mM solution, Sigma, final dilution 1:2000). Plates were analysed using a Satorius iQue Screener with settings to allow for a sampling time of ≤30 min per 384-well plate. Gating of data has been performed using the flow cytometer software to export counts of gated populations. This assay was tested in 5 separate donor pools.
as §2

HepG2 = HepG2 cytotoxicity assay (resazurin based); type: cell-based; details: 70h incubation
HeLa = HeLa cell painting cytotoxicity assay; type: cell-based; details: 24h compound incubation
Procedure: The HeLa-based assay uses the cell painting assay [11], while the HepG2 assay utilizes a resazurin based viability read-out [64].
Cell were incubated with compounds for 24h.
• 10 μL of MitoTracker (Life Technologies, M22426, 1 mM stock in DMSO as recommended by the vendor) is added to 50 μL of media (1:2000 final dilution) • Phalloidin-Alexa594 (Life Technologies, A12381, 66 μM stock in methanol as recommended by the vendor, 1:500 final dilution) • WGA-Alexa594 (Life Technologies, W11262, 5 mg/mL stock, 1:250 final dilution) was used • DAPI (5 mg/mL stock; 1:1000 final dilution) was used to stain DNA • 20 μL of staining solution was used • PBS was used for washing steps
For cell painting imaging data, plates of images were imported into OMERO [70]. Cell segmentation and feature extraction were performed using CellProfiler 3 [71] and using instructions from [11] to normalize data.

human spermatozoa [6] = assay: Capacitation assay (motility and hyperactivation under capacitating conditions); type: cell-based; details: cluster in Fig 3A; 30 min capacitation then 30 min with compound
Procedure: as §3
Cells were capacitated for 30 min at 37°C and 5% CO2. 10 μL assay buffer was dispensed into assay ready plates, plates were put onto a shaker instrument for 30 seconds using 1,000 rpm, followed by a short pulse centrifugation. Plates were incubated for 15–30 mins at 37°C and 5% CO2 prior to addition of 10 μL of pooled cells (at 1 M/mL concentration). This was followed by a 20 min compound incubation step at 37°C and 5% CO2. Plates were then incubated in our CV7000 microscope set at 37°C and 5% CO2 for 10 min prior to imaging. […]
For cell painting imaging data, plates of images were imported into OMERO [70]. […] A median value of all 16 wells was used to calculated percentage change (pct_ch = ((value / DMSO_median) -1) * 100). For sperm viability we calculated fold-change (fc = 1 − (value / DMSO_median)). For each compound we calculated a p-value using a Welch’s t-test implemented in scipy (scipy.stats.ttest_ind) comparing a compounds effect to DMSO controls.

[7] = screening_concentration_M 9.99e-6
[8] = screening_concentration_M 2.991e-5

N=C(N)Nc1nc2ccccc2[nH]1 [2-Guanidinobenzimidazole]
Published Phenotype (spermatozoa): Reduces sperm motility | ch (percentage change vs DMSO median), Acrosome (human spermatozoa [1]; [7]): 0.2236% | ch (percentage change vs DMSO median), Acrosome (human spermatozoa [1]; [8]): 0.07571%

CNc1ccc2oc(C[C@H]3O[C@@]4(CC[C@H]3C)O[C@H]([C@H](C)C(=O)c3ccc[nH]3)[C@H](C)C[C@H]4C)nc2c1C(=O)O [A23187]
Published Phenotype (spermatozoa): Induces acrosome reaction | sperm motility and/or acrosome reacted cells (unsupervised clustering) (human spermatozoa [2]): significant reduction of sperm motility and/or increased amounts of acrosome reacted cells

NC(=O)Nc1cc(-c2cccc(F)c2)sc1C(=O)N[C@H]1CCCNC1 [AZD 7762 hydrochloride]
Phenotype observed in own screening campaigns (Published Phenotype, References 'This study') (human spermatozoa [3]): Reduces sperm motility

CCCCC(CC)CNC(=N)NC(=N)NCCCCCCNC(=N)NC(=N)NCC(CC)CCCC (stereo not drawn) [Alexidine dihydrochloride]
Published Phenotype (spermatozoa): Reduces sperm motility | sperm motility and/or acrosome reacted cells (unsupervised clustering) (human spermatozoa [2]): significant reduction of sperm motility and/or increased amounts of acrosome reacted cells

CCOc1ccc(-c2nc(-c3cccc4c3CCC4NCCO)no2)cc1OCC (stereo not drawn) [CYM 5442 hydrchloride]
Phenotype observed in own screening campaigns (Published Phenotype, References 'This study') (human spermatozoa [3]): Reduces sperm motility; induces acrosome reaction

COc1cc(N2CCOCC2)ccc1Nc1ncc(F)c(Nc2ccccc2NS(C)(=O)=O)n1 [CZC 25146]
sperm motility (human spermatozoa [2]): decrease sperm motility | LRRK2 inhibition (LRRK2 kinase): potent LRRK2 inhibitor

Nc1nc(Cl)nc2c1ncn2[C@@H]1O[C@H](CO)[C@@H](O)[C@@H]1F [Clofarabine]
Published Phenotype (spermatozoa): Enhances sperm motility | acrosome reaction (acrosome reacted cells) (human spermatozoa [4]): significantly increased | effects on sperm viability (human spermatozoa [5]): do not show effects | general cytotoxicity (HepG2) (HepG2): do not show effects | general cytotoxicity (HeLa) (HeLa): do not show effects | hyperactive motility (human spermatozoa [6]): significantly increased

Clc1ccc(C(OCCN2CCCCC2)c2ccccc2)cc1 (stereo not drawn) [Cloperastine hydrochloride]
Phenotype observed in own screening campaigns (Published Phenotype, References 'This study') (human spermatozoa [3]): Reduces sperm motility

CCS(=O)(=O)Nc1ccc2c(c1)/C(=C(/Nc1ccc(CN3CCCCC3)cc1)c1ccccc1)C(=O)N2 [Hesperadin hydrochloride]
Phenotype observed in own screening campaigns (Published Phenotype, References 'This study') (human spermatozoa [3]): Reduces sperm motility

C[C@]1(O)C[C@@H](c2nc(-c3ccc4ccc(-c5ccccc5)nc4c3)c3c(N)nccn32)C1 [Linsitinib]
Published Phenotype (spermatozoa): enhances sperm motility | acrosome reaction (acrosome reacted cells) (human spermatozoa [4]): significantly increased | effects on sperm viability (human spermatozoa [5]): do not show effects | general cytotoxicity (HepG2) (HepG2): do not show effects | general cytotoxicity (HeLa) (HeLa): do not show effects | hyperactive motility (human spermatozoa [6]): significantly increased

Cc1ccc(S(=O)(=O)c2ccc([N+](=O)[O-])o2)cc1 [NSC 697923]
Phenotype observed in own screening campaigns (Published Phenotype, References 'This study') (human spermatozoa [3]): Reduces sperm motility

[O-][S+](c1ccccc1)c1ccc2nnnn2n1 (stereo not drawn) [Ro 106–9920]
Phenotype observed in own screening campaigns (Published Phenotype, References 'This study') (human spermatozoa [3]): Reduces sperm motility

CCCCCCCCOc1ccc(-c2noc([C@@H]3CCCN3C(=N)N)n2)cc1C(F)(F)F [SLM 6031434 hydrochloride]
Phenotype observed in own screening campaigns (Published Phenotype, References 'This study') (human spermatozoa [3]): Induces acrosome reaction

COc1cc(C)c2c(Oc3cccc(C(F)(F)F)c3)c(OC)cc(NC(C)CCCN)c2n1 (stereo not drawn) [Tafenoquine]
sperm motility and/or acrosome reacted cells (unsupervised clustering) (human spermatozoa [2]): significant reduction of sperm motility and/or increased amounts of acrosome reacted cells | Phenotype observed in own screening campaigns (Published Phenotype, References 'This study') (human spermatozoa [3]): Reduces sperm motility; induces acrosome reaction

COc1cc2c(cc1OC)-c1c/c(=N\c3c(C)cc(C)cc3C)n(C)c(=O)n1CC2 [Trequinsin hydrochloride]
Published Phenotype (spermatozoa): Increases hyperactivated sperm; increases penetration of sperm into viscous media, increases motility | acrosome reaction (acrosome reacted cells) (human spermatozoa [4]): significantly increased | effects on sperm viability (human spermatozoa [5]): do not show effects | general cytotoxicity (HepG2) (HepG2): do not show effects | general cytotoxicity (HeLa) (HeLa): do not show effects | hyperactive motility (human spermatozoa [6]): significantly increased

O=C(N1CCCCC1)N1CCCCC1Cc1ccccc1 (stereo not drawn) [compound 183]
Published Phenotype (spermatozoa): Reduces acrosome reaction | ch (percentage change vs DMSO median), Acrosome (human spermatozoa [1]; [7]): 0.955% | ch (percentage change vs DMSO median), Acrosome (human spermatozoa [1]; [8]): 1.376%
